Laboratory results: PubChem BioAssay AID449762 (Southern Research Specialized Biocontainment Screening …, 2010)
Inconclusive results are not listed.

System: M. tuberculosis H37Rv growth inhibition, 7H9 media
Assay: M. tuberculosis growth inhibition, HTS (AID 449762);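 note: bacterial growth assessed after seven days of incubation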
Details: for IC90: measured here: IC90 growth inhibition

SMILES	IC50 [µM]	IC90 [µM]
CCOC(=O)c1ccc(N=C2S/C(=C\c3cc(C)n(-c4cccnc4)c3C)C(=O)N2C)cc1	96.6	> 100
Cn1cnc([N+](=O)[O-])c1Sc1ccc(Br)cc1	8.81	16.9
CC1(C)CC(=O)c2c(O)cc(OCc3ccc(Br)cc3)cc2O1	42	67.3
CC(C)(C)c1ccc(C(=O)NNc2cc(N3CCCCC3)nc(N3CCCCC3)n2)cc1	60.6	74.8
COC(=O)C1C2c3ccccc3OC1(C)N=c1s/c(=C/c3cnn(C)c3C)c(=O)n12 (centres undefined)	0.97	13.1
c1ccc(Cn2c(CNc3nc4ccccc4n3CCN3CCCCC3)nc3ccccc32)cc1	33.8	43.9
COC(=O)c1ccc2c(=O)[nH]c(CSc3nc(C)cs3)nc2c1	69	> 100
CCOc1ccc(N/C(C)=C/C(=O)c2ccc3c(c2)OCCO3)cc1	11.6	47.2
CCOc1ccc(-c2cc(CCCC(=O)NCCC(C)C)no2)cc1	6.53	14.3
O=c1oc2ccccc2c2c1nc(C(F)(F)F)n2-c1ccccc1	4.39	31.1
Cc1ccc2c(c1)c(C1=c3ccccc3=NC1=O)c(O)n2C	1.17	3.07
CCCCCC(=O)Nc1cccc2ccccc12	14.1	> 100
COc1cnc(-c2ccccn2)nc1Oc1ccc(Cl)c2ccccc12	< 0.2	2.86
CCCCCC(O)c1cccc(OCc2ccc3ccccc3n2)c1 (centres undefined)	44.7	50.5
COc1cccc(/C=N/Nc2nc(Nc3ccccc3)nc(-n3nc(C)cc3C)n2)c1O	< 0.2	< 0.2
O=C(CCl)Nc1nccs1	2.01	4.71
C=CCNC(=O)c1onc(CCl)c1C(=O)OC	1.66	5.93
CCOC(=O)c1cc(-c2ccccc2)nc2c1c(C)nn2-c1ccccn1	2.97	27.2
Cc1nc(S/C(=C/c2ccc(-c3ccc(Cl)cc3)o2)C(=O)O)n[nH]1	18.4	> 100
CCN(CC)S(=O)(=O)c1ccc(/C=C/C(=O)OCC#N)cc1	6.59	39.6
O=C(CCN1C(=O)/C(=C/c2ccccc2)SC1=S)Nc1ccccn1	89.9	> 100
OC(CNCC(c1ccc(Cl)cc1Cl)c1c[nH]c2ccccc12)c1ccccc1 (centres undefined)	16.9	23.4

SMILES	IC50 [µM]	IC90 [µM]
CCOC(=O)N1CCN(C(=O)CSc2nnc(-c3ccc(Cl)s3)o2)CC1	13.1	34.1
CCOC(=O)c1ccc(Oc2nc(NC(C)(C)C)nc(N(C)C)n2)cc1	21.3	82.2
CN=c1scc(-c2ccccc2Br)n1/N=C/c1ccc[nH]1	50	54.2
COC(=O)C(C)Oc1ccc(-c2nccc(-c3ccccn3)n2)cc1 (centres undefined)	1.73	4.04
CCCCCCCCn1c2c(c(=N)c3c1CCC3)CCCC2	19	26.4
NN/C(=C\[N+](=O)[O-])Nc1ccc(Cl)cc1	45.9	> 100
O=C1/C(=N\S(=O)(=O)c2cccs2)C([n+]2ccc(CCCc3ccccc3)cc2)=C([O-])c2ccccc21	18.2	22.1
NNC(=S)Nc1ccccc1Cl	24.4	27.8
CCOC(=O)c1c(NC(=O)CCl)sc(CN(C)C)c1-c1ccccc1	0.92	4.68
O=c1c(C=Nc2ccc(Oc3ccccc3)cc2)c[nH]n1-c1cccc(Cl)n1	10.6	> 100
O=C(Nc1ccn(Cc2ccccc2F)n1)c1ccc(COc2ccccc2Cl)cc1	11.6	13.2
O=C(CN1CCN(C(=O)COc2cccc(F)c2)CC1)Nc1ccc(Cl)c(C(F)(F)F)c1	49	55.4
COc1ccccc1NC(=O)c1ccc(NC(=O)CSc2nnnn2C)cc1	2.89	13.8
COc1ccc(-c2cc(C3CCN(Cc4cccc(C(F)(F)F)c4)CC3)[nH]n2)cc1	10.6	15.9
O=C(C[n+]1ccc(C(=O)c2ccccc2)cc1)Nc1ccc(C(F)(F)F)cc1	21.5	23.7
CSC(=S)N/N=C/c1ccccc1	10.1	12.8
c1ccc2c(c1)CCN(c1nc(CN3CCOCC3)nc3sc4c(c13)CCCC4)C2	13.8	33.6
COc1ccc(-c2ccc(OC)c([C@H]3[C@@H]4C=CCC[C@@]4(C)C(=O)N3Cc3ccccc3)c2)cc1OC	13.1	24.8
OCC(O)/C=N/Nc1nc(Nc2ccccc2)nc(Nc2ccccc2)n1 (centres undefined)	9.56	12.5
Cc1ccc2nc(N/N=C/c3ccccc3C#N)nc(-c3ccccc3)c2c1	81.1	> 100
CS(=O)(=O)c1ccc([C@@H](O)[C@@H](CF)NC(=O)C(Cl)Cl)cc1	10.1	24.7
COC(OC)c1ccnc(-c2ccc(OC(=O)c3cccs3)cc2)n1	62.4	> 100

SMILES	IC50 [µM]	IC90 [µM]
COc1ccc(-c2ccnc3nc(N4CCN(c5ccccc5)CC4)nn23)cc1	36.4	47.9
CC[n+]1c(/C=C/N(C)c2ccccc2)n(-c2ccccc2)c2ccc(-c3nc4ccccc4s3)cc21	0.87	1.27
S=C(Nc1ccc(Nc2ccccc2)cc1)Nc1ccccn1	48.7	> 50
CCOc1ncccc1C(=O)OCC(=O)N1CCc2ccccc21	6.15	15.4
O=C(CSc1nc2ccccc2c(=O)[nH]1)NCc1ccc(Cl)cc1	1.09	2.7
CCOc1ccc(C2c3[nH]c4ccccc4c3C[C@H]3C(=O)N(C4CCN(Cc5ccccc5)CC4)CC(=O)N23)cc1OC (some centres undefined)	21.5	29.7
Cc1c(Cl)ccc2c1NC(=O)[C@]21N[C@@H](Cc2ccccc2)[C@H]2C(=O)N(c3ccc(F)cc3)C(=O)[C@H]21	23	26.1
O=C(c1ccco1)N1CCN(C(=O)C2CC(c3ccc(Cl)c(Cl)c3)=NO2)CC1 (centres undefined)	3.88	11
COc1cccc2sc3ccc(C#CC4(N)CCCCC4)cc3c(=O)c12	61.6	82.2
COc1ccc(CN2CCCC(C(=O)c3ccc(SC)cc3)C2)cc1Cn1cccn1 (centres undefined)	23.9	26.6
Cc1[nH]c2ccc(OC(F)(F)F)cc2c1CCNCc1ccc(Cl)cc1	10.9	19
COc1ccc(SC[C@H](Cc2ccccc2)N2CCN(CCc3ccccc3)CCC2=O)cc1	36.8	46.7
COc1cc(C(=O)/C=C/c2cccnc2)c([N+](=O)[O-])cc1OC	5.52	8.56
Cn1c(CNc2ccccc2O)nc2ccccc21	3.01	3.52
CCOC(=O)c1ccc(NC(=O)Cn2ncc(Cl)c(Cl)c2=O)cc1	< 0.2	0.44
O=c1c(C=NCCN2CCNCC2)c(O)n(C2CCCCC2)c(=O)n1C1CCCCC1	21	28.5
Cc1cc(/C=N/n2cnnc2)c(C)n1-c1ccc(OCc2ccc(Cl)cc2Cl)cc1	7.25	15.8
CC1=NN(c2ccccc2)C(=O)C1C(=O)c1ccccc1 (centres undefined)	25.7	53
O=c1cc(O)c2sc3nc(-c4cccnc4)cc(C(F)(F)F)c3c2[nH]1	15.6	35.6
CCOC(=O)CSc1nnc(-c2ccc(S(=O)(=O)NCc3cccs3)cc2)o1	2.55	4.55
CCOC(=O)c1nnc(-c2ccccc2)nc1NCc1ccccc1	14.6	> 100
CCOC(=O)c1cc(-c2csc(Nc3c(C)cc(C)cc3C)n2)on1	1.07	1.76

SMILES	IC50 [µM]	IC90 [µM]
Cc1ccc(Nc2nc(N)c([N+](=O)[O-])c(N3CCCC(C)C3)n2)cc1C (centres undefined)	99.9	> 100
COCc1nnc(NC(=O)C2CC(=O)N(c3ccc(C)c(Cl)c3)C2)s1 (centres undefined)	51.1	> 100
Cc1ccc(C(=O)O/N=C\c2ccc(N3CCCCC3)c([N+](=O)[O-])c2)cc1	22.1	49
Nc1c(C(=O)NC2CCCCC2)nsc1C(=O)OCC(=O)NC1CCCCC1	1.87	6.02
C(C#CCCCCCCCCC[n+]1ccccc1)#CCCCCCCCCC[n+]1ccccc1	2.8	4.43
Clc1ccc(-c2cc3ccccc3nc2N2CCCC2)cc1	69.2	> 100
Nc1ccc(-c2nc3ccc(-c4nc5ccccc5o4)cc3[nH]2)cc1	31.4	41.6
Cc1[nH]n(-c2ccccc2)c(=O)c1C(C[N+](=O)[O-])c1ccccc1Cl (centres undefined)	6.99	14.3
CCN(CC)c1ccc2c(Cl)c(Br)c(=O)oc2c1	13.7	43.4
Cn1ccnc1C(O)c1cc(C(C)(C)C)c(O)c(C(C)(C)C)c1 (centres undefined)		> 100
O=[N+]([O-])c1cn(-c2nc(-c3ccco3)cc(C(F)(F)F)n2)cn1	1.77	22
Nc1ccccc1C#CC(=O)c1ccccc1	1.11	43.1
CC(Oc1ccc(F)cc1)C(=O)Nc1sc2c(c1C(=O)NCc1cccnc1)CCCC2 (centres undefined)	45	52.5
CNc1nc(-c2ccccn2)nnc1-c1ccccc1	12.1	19
N#CCCN(C(=O)COC(=O)CCc1c[nH]c2ccccc12)c1ccc(F)cc1	30.7	70.8
Cc1ccc(-c2csc(N3CCN(CCCn4c(-c5ccncc5)nc5ccccc54)CC3)n2)cc1	23.4	26.5
COc1ccccc1C(CNC(=O)C(C)(C)Oc1ccc(Cl)cc1)N1CCCC1 (centres undefined)	23.5	26.5
COC(=O)C(Cc1ccc(OC(=O)c2ccc(C(F)(F)F)cc2)cc1)N1Cc2ccccc2C1=O (centres undefined)		> 100
CSc1cccc(CNC(=O)C2CCC(=O)N(Cc3cccc(C(F)(F)F)c3)C2)c1 (centres undefined)	26.6	30.6
Cc1ccnc(N2CCC(C(=O)Nc3cccc(C(F)(F)F)c3)CC2)n1	47.5	> 100
Cc1cccc(C)c1OCCCCc1c(C)n[nH]c1C	10.9	26.4
COc1ccc(NC(C)C(=O)Nc2ccc(C(C)(C)C)cc2)cc1Cl (centres undefined)	86.1	> 100
